{"source": "patent US20120130146A1", "about": "“CONTINUOUS ADMINISTRATION OF CILENGITIDE IN CANCER TREATMENTS” (Merck Patent GmbH, priority 2009, published 2012)", "key": {"[1]": {"details": "human, in vivo; cited from earlier work"}, "[2]": {"assay": "Continuous infusion study pharmacokinetics (plasma)", "assay_type": "in vivo, human", "details": "for EMD 121974 Concentrations / CL / V / ke / Css: individual subjects; for CL: CL=Rate/Css; for V, Mean / ke, Mean / V: t1/2 = 4 hours; for V: V=CL/ke; for ke: for t1/2 = 4 hours; for Css: mean of 168 h to 506 h values per patient", "protocol": "Patients with solid tumors received a continuous infusion of 1 mg/h, 2 mg/h, 4 mg/h, 8 mg/h or 12 mg/h. with a weekly change of infusion bag.\nBlood samples were taken on Day 1 (first dose) at pre-dose and 2 h after start of infusion and then weekly just before change of infusion bag and 2 hours thereafter for the first 4 weeks.\nThe following pharmacokinetic parameters were derived at Merck KGaA. Darmstadt, Germany, by mathematical methods using Kinetica Version 4.1.1.\nCL the total body clearance of EMD 121974 from plasma Css plasma concentration at steady state ke elimination rate constant Rate infusion rate t1/2, half life V Volume of distribution\nCss, the plasma concentration at steady state, has been estimated by the arithmetic mean of all concentration values from time point 168 h to 506 h per patient.\nFrom Css and t1/2 the PK parameters CL, ke and V were calculated as follows: […]"}, "[3]": {"details": "Rate 1 mg/h, listed as EMD 121974"}, "[4]": {"details": "Rate 2 mg/h, listed as EMD 121974"}, "[5]": {"details": "Rate 4 mg/h, listed as EMD 121974"}, "[6]": {"details": "Rate 8 mg/h, listed as EMD 121974"}}, "note": "Several values for one entry are separate records, joined by “and”; a condition that tells them apart may be missing. Equal values may be shown once."}
{"smiles": "CC(C)[C@H]1C(=O)N[C@@H](CCCN=C(N)N)C(=O)NCC(=O)N[C@@H](CC(=O)O)C(=O)N[C@H](Cc2ccccc2)C(=O)N1C", "note": "[Cilengitide, cyclo-(Arg-Gly-Asp-DPhe-NMeVal)]", "values": [{"measurement": "half-life", "setting": "[1]", "result": "3 to 5", "unit": "h"}, {"measurement": "Mean values for half-life, clearance, and volume of distribution across dose levels", "setting": "[2]; 12 mg/h dose level and below", "result": "comparable across dose levels"}, {"measurement": "EMD 121974 Concentrations", "setting": "[2]; Rate 1 mg/h, 0 h (pre-dose)", "result": "Undetectable"}, {"measurement": "EMD 121974 Concentrations", "setting": "[2]; Rate 1 mg/h, 2 h, listed as EMD 121974", "result": "42.90 ng/mL and Undetectable"}, {"measurement": "EMD 121974 Concentrations", "setting": "[2]; Rate 1 mg/h, 168 h, listed as EMD 121974", "result": 240.00, "unit": "ng/mL"}, {"measurement": "EMD 121974 Concentrations", "setting": "[2]; Rate 1 mg/h, 170 h, listed as EMD 121974", "result": "156.00 ng/mL and 10.30 ng/mL"}, {"measurement": "EMD 121974 Concentrations", "setting": "[2]; Rate 1 mg/h, 336 h, listed as EMD 121974", "result": "324.00 ng/mL and 172.00 ng/mL"}, {"measurement": "EMD 121974 Concentrations", "setting": "[2]; Rate 1 mg/h, 338 h, listed as EMD 121974", "result": "321.00 ng/mL and 153.00 ng/mL"}, {"measurement": "CL", "setting": "[2]; [3]", "result": "3.84 L/h and 10.17 L/h and 10.93 L/h"}, {"measurement": "V, Mean", "setting": "[2]; Rate 1 mg/h", "result": 48.0, "unit": "L"}, {"measurement": "ke, Mean", "setting": "[2]; Rate 1 mg/h", "result": 0.173, "unit": "h⁻¹"}, {"measurement": "V", "setting": "[2]; [3]", "result": "22.2 L and 58.7 L and 63.1 L"}, {"measurement": "ke", "setting": "[2]; Rate 1 mg/h", "result": 0.173, "unit": "h⁻¹"}, {"measurement": "Css", "setting": "[2]; [3]", "result": "260.3 ng/mL and 98.4 ng/mL and 91.5 ng/mL"}, {"measurement": "EMD 121974 Concentrations", "setting": "[2]; Rate 2 mg/h, 0 h (pre-dose)", "result": "Undetectable"}, {"measurement": "EMD 121974 Concentrations", "setting": "[2]; Rate 2 mg/h, 2 h, listed as EMD 121974", "result": "162.00 ng/mL and Undetectable"}, {"measurement": "EMD 121974 Concentrations", "setting": "[2]; Rate 2 mg/h, 168 h, listed as EMD 121974", "result": "189.00 ng/mL and 498.00 ng/mL"}, {"measurement": "EMD 121974 Concentrations", "setting": "[2]; Rate 2 mg/h, 170 h", "result": 316.00, "unit": "ng/mL"}, {"measurement": "EMD 121974 Concentrations", "setting": "[2]; Rate 2 mg/h, 170 h, listed as EMD 121974", "result": 244.00, "unit": "ng/mL"}, {"measurement": "EMD 121974 Concentrations", "setting": "[2]; Rate 2 mg/h, 336 h, listed as EMD 121974", "result": "467.00 ng/mL and 523.00 ng/mL"}, {"measurement": "EMD 121974 Concentrations", "setting": "[2]; Rate 2 mg/h, 338 h, listed as EMD 121974", "result": "327.00 ng/mL and 392.00 ng/mL"}, {"measurement": "EMD 121974 Concentrations", "setting": "[2]; Rate 2 mg/h, 504 h, listed as EMD 121974", "result": "268.00 ng/mL and 485.00 ng/mL"}, {"measurement": "EMD 121974 Concentrations", "setting": "[2]; Rate 2 mg/h, 506 h, listed as EMD 121974", "result": "247.00 ng/mL and 427.00 ng/mL"}, {"measurement": "CL", "setting": "[2]; [4]", "result": 4.54, "unit": "L/h"}, {"measurement": "V, Mean", "setting": "[2]; Rate 2 mg/h", "result": 33.0, "unit": "L"}, {"measurement": "ke, Mean", "setting": "[2]; Rate 2 mg/h", "result": 0.173, "unit": "h⁻¹"}, {"measurement": "V", "setting": "[2]; [4]", "result": "39.8 L and 26.2 L"}, {"measurement": "ke", "setting": "[2]; Rate 2 mg/h", "result": 0.173, "unit": "h⁻¹"}, {"measurement": "Css", "setting": "[2]; [4]", "result": "290.3 ng/mL and 440.2 ng/mL"}, {"measurement": "EMD 121974 Concentrations", "setting": "[2]; Rate 4 mg/h, 0 h (pre-dose)", "result": "Undetectable"}, {"measurement": "EMD 121974 Concentrations", "setting": "[2]; Rate 4 mg/h, 2 h, listed as EMD 121974", "result": "228.00 ng/mL and 303.00 ng/mL and 454.00 ng/mL"}, {"measurement": "EMD 121974 Concentrations", "setting": "[2]; Rate 4 mg/h, 168 h, listed as EMD 121974", "result": "467.00 ng/mL and 517.00 ng/mL and 894.00 ng/mL"}, {"measurement": "EMD 121974 Concentrations", "setting": "[2]; Rate 4 mg/h, 170 h, listed as EMD 121974", "result": "408.00 ng/mL and 372.00 ng/mL and 843.00 ng/mL and 439.00 ng/mL"}, {"measurement": "EMD 121974 Concentrations", "setting": "[2]; Rate 4 mg/h, 336 h, listed as EMD 121974", "result": "606.00 ng/mL and 847.00 ng/mL"}, {"measurement": "EMD 121974 Concentrations", "setting": "[2]; Rate 4 mg/h, 338 h, listed as EMD 121974", "result": "283.00 ng/mL and 644.00 ng/mL and 711.00 ng/mL and 597.00 ng/mL"}, {"measurement": "EMD 121974 Concentrations", "setting": "[2]; Rate 4 mg/h, 504 h, listed as EMD 121974", "result": "1170.00 ng/mL and 524.00 ng/mL and 482.00 ng/mL and 485.00 ng/mL"}, {"measurement": "EMD 121974 Concentrations", "setting": "[2]; Rate 4 mg/h, 506 h, listed as EMD 121974", "result": "776.00 ng/mL and 649.00 ng/mL and 618.00 ng/mL"}, {"measurement": "CL", "setting": "[2]; [5]", "result": "7.51 L/h and 5.96 L/h and 6.19 L/h"}, {"measurement": "V, Mean", "setting": "[2]; Rate 4 mg/h", "result": 37.7, "unit": "L"}, {"measurement": "ke, Mean", "setting": "[2]; Rate 4 mg/h", "result": 0.173, "unit": "h⁻¹"}, {"measurement": "V", "setting": "[2]; [5]", "result": "37.2 L and 43.3 L and 34.4 L and 35.7 L"}, {"measurement": "ke", "setting": "[2]; Rate 4 mg/h", "result": 0.173, "unit": "h⁻¹"}, {"measurement": "Css", "setting": "[2]; [5]", "result": "620.8 ng/mL and 532.6 ng/mL and 671.3 ng/mL and 646.7 ng/mL"}, {"measurement": "EMD 121974 Concentrations", "setting": "[2]; Rate 8 mg/h, 0 h (pre-dose)", "result": "Undetectable"}, {"measurement": "EMD 121974 Concentrations", "setting": "[2]; Rate 8 mg/h, 2 h, listed as EMD 121974", "result": "603.00 ng/mL and 445.00 ng/mL and 462.00 ng/mL"}, {"measurement": "EMD 121974 Concentrations", "setting": "[2]; Rate 8 mg/h, 168 h, listed as EMD 121974", "result": "1310.00 ng/mL and 881.00 ng/mL and 2190.00 ng/mL"}, {"measurement": "EMD 121974 Concentrations", "setting": "[2]; Rate 8 mg/h, 170 h, listed as EMD 121974", "result": "862.00 ng/mL and 958.00 ng/mL and 1820.00 ng/mL"}, {"measurement": "EMD 121974 Concentrations", "setting": "[2]; Rate 8 mg/h, 336 h", "result": 525.00, "unit": "ng/mL"}, {"measurement": "EMD 121974 Concentrations", "setting": "[2]; Rate 8 mg/h, 338 h, listed as EMD 121974", "result": "424.00 ng/mL and 1520.00 ng/mL"}, {"measurement": "EMD 121974 Concentrations", "setting": "[2]; Rate 8 mg/h, 504 h, listed as EMD 121974", "result": "1610.00 ng/mL and 1440.00 ng/mL and 1830.00 ng/mL"}, {"measurement": "EMD 121974 Concentrations", "setting": "[2]; Rate 8 mg/h, 506 h, listed as EMD 121974", "result": "1590.00 ng/mL and 771.00 ng/mL and 1500.00 ng/mL"}, {"measurement": "CL", "setting": "[2]; [6]", "result": "5.96 L/h and 9.60 L/h and 4.51 L/h"}, {"measurement": "V, Mean", "setting": "[2]; Rate 8 mg/h", "result": 38.6, "unit": "L"}, {"measurement": "ke, Mean", "setting": "[2]; Rate 8 mg/h", "result": 0.173, "unit": "h⁻¹"}, {"measurement": "V", "setting": "[2]; [6]", "result": "34.4 L and 55.4 L and 26.1 L"}, {"measurement": "ke", "setting": "[2]; Rate 8 mg/h", "result": 0.173, "unit": "h⁻¹"}, {"measurement": "Css", "setting": "[2]; [6]", "result": "1343.0 ng/mL and 833.2 ng/mL and 1772.0 ng/mL"}, {"measurement": "EMD 121974 Concentrations", "setting": "[2]; Rate 12 mg/h, 0 h (pre-dose)", "result": "Undetectable"}, {"measurement": "EMD 121974 Concentrations", "setting": "[2]; Rate 12 mg/h, 2 h, listed as EMD 121974", "result": "722.00 ng/mL and 303.00 ng/mL and 472.00 ng/mL"}, {"measurement": "EMD 121974 Concentrations", "setting": "[2]; Rate 12 mg/h, 168 h, listed as EMD 121974", "result": "777.00 ng/mL and 2550.00 ng/mL and 1980.00 ng/mL"}, {"measurement": "EMD 121974 Concentrations", "setting": "[2]; Rate 12 mg/h, 170 h, listed as EMD 121974", "result": "1130.00 ng/mL and 1770.00 ng/mL and 1340.00 ng/mL"}, {"measurement": "EMD 121974 Concentrations", "setting": "[2]; Rate 12 mg/h, 336 h, listed as EMD 121974", "result": "4280.00 ng/mL and 1250.00 ng/mL and 1790.00 ng/mL"}, {"measurement": "EMD 121974 Concentrations", "setting": "[2]; Rate 12 mg/h, 338 h, listed as EMD 121974", "result": "1780.00 ng/mL and 1610.00 ng/mL and 1620.00 ng/mL"}, {"measurement": "EMD 121974 Concentrations", "setting": "[2]; Rate 12 mg/h, 504 h, listed as EMD 121974", "result": "2220.00 ng/mL and 989.00 ng/mL and 2050.00 ng/mL"}]}
